# Test results reported in patent publication US7118895B2, “Process for producing aglycon by using diglycosidase and flavor-improved food containing the aglycon and converting agent to be used in the process” (Amano Enzyme Inc., priority 2000, dated 2006).
# Test system: Crude diglycosidase
# Test: Examination of pH in the conversion into isoflavone aglycons by diglycosidase using soybean materials
# Assay type: biochemical, Penicillium multicolor IAM7153
# Conditions: for Decomposition efficiency of glycitin family in roasted soy flour / Decomposition efficiency of glycitin family in soymilk: 55° C.
# Method in brief: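 Soybean materials (roasted soy flour, soymilk, defatted soybean, concentrated soy protein) suspended and adjusted to pH 2–11. Crude diglycosidase added at 1.88 AU/mL enzyme solution and reacted at 55° C. Ethanol-stopped at 0, 1, 3 and 6 h; isoflavone glycosides and aglycons detected by HPLC.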
# [1] = pH6.6, heat treatment of enzyme: no, reaction time 0 h
# [2] = pH6.6, heat treatment of enzyme: no, reaction time 1 h
# [3] = pH6.6, heat treatment of enzyme: no, reaction time 3 h
# [4] = pH6.6, heat treatment of enzyme: no, reaction time 6 h
# [5] = pH6.6, heat treatment of enzyme: yes, reaction time 6 h
compound,measurement,setting,value
"COc1cc2c(=O)c(-c3ccc(O)cc3)coc2cc1O[C@@H]1O[C@H](COC(C)=O)[C@@H](O)[C@H](O)[C@H]1O [acetylglycitin, 6″-O-acetylglycitin]",Decomposition efficiency of glycitin family in concentrated soybean protein,"pH1.6, heat treatment of enzyme: no, reaction time 0 h",35.9%
same,Decomposition efficiency of glycitin family in concentrated soybean protein,"pH1.6, heat treatment of enzyme: no, reaction time 1 h",35.1%
same,Decomposition efficiency of glycitin family in concentrated soybean protein,"pH1.6, heat treatment of enzyme: no, reaction time 3 h",33.5%
same,Decomposition efficiency of glycitin family in concentrated soybean protein,"pH1.6, heat treatment of enzyme: no, reaction time 6 h",31.8%
same,Decomposition efficiency of glycitin family in concentrated soybean protein,"pH1.6, heat treatment of enzyme: yes, reaction time 6 h",30.9%
same,Decomposition efficiency of glycitin family in roasted soy flour,"pH2, heat treatment of enzyme no, reaction time 0 h",35.3
same,Decomposition efficiency of glycitin family in roasted soy flour,"pH2, heat treatment of enzyme no, reaction time 1 h",34.0
same,Decomposition efficiency of glycitin family in roasted soy flour,"pH2, heat treatment of enzyme no, reaction time 3 h",34.2
same,Decomposition efficiency of glycitin family in roasted soy flour,"pH2, heat treatment of enzyme no, reaction time 6 h",35.5
same,Decomposition efficiency of glycitin family in roasted soy flour,"pH2, heat treatment of enzyme yes, reaction time 6 h",35.2
same,Decomposition efficiency of glycitin family in soymilk,"pH2.3, heat treatment of enzyme no, reaction time 0 h",not detected
same,Decomposition efficiency of glycitin family in soymilk,"pH2.3, heat treatment of enzyme no, reaction time 1 h",not detected
same,Decomposition efficiency of glycitin family in soymilk,"pH2.3, heat treatment of enzyme no, reaction time 3 h",not detected
same,Decomposition efficiency of glycitin family in soymilk,"pH2.3, heat treatment of enzyme no, reaction time 6 h",not detected
same,Decomposition efficiency of glycitin family in soymilk,"pH2.3, heat treatment of enzyme yes, reaction time 6 h",not detected
same,Decomposition efficiency of glycitin family in defatted soybean,"pH2.6, heat treatment of enzyme: no, reaction time 0 h",not detected
same,Decomposition efficiency of glycitin family in defatted soybean,"pH2.6, heat treatment of enzyme: no, reaction time 1 h",not detected
same,Decomposition efficiency of glycitin family in defatted soybean,"pH2.6, heat treatment of enzyme: no, reaction time 3 h",not detected
same,Decomposition efficiency of glycitin family in defatted soybean,"pH2.6, heat treatment of enzyme: no, reaction time 6 h",not detected
same,Decomposition efficiency of glycitin family in defatted soybean,"pH2.6, heat treatment of enzyme: yes, reaction time 6 h",not detected
same,Decomposition efficiency of glycitin family in concentrated soybean protein,"pH2.7, heat treatment of enzyme: no, reaction time 0 h",35.9%
same,Decomposition efficiency of glycitin family in concentrated soybean protein,"pH2.7, heat treatment of enzyme: no, reaction time 1 h",36.6%
same,Decomposition efficiency of glycitin family in concentrated soybean protein,"pH2.7, heat treatment of enzyme: no, reaction time 3 h",36.5%
same,Decomposition efficiency of glycitin family in concentrated soybean protein,"pH2.7, heat treatment of enzyme: no, reaction time 6 h",36.6%
same,Decomposition efficiency of glycitin family in concentrated soybean protein,"pH2.7, heat treatment of enzyme: yes, reaction time 6 h",35.4%
same,Decomposition efficiency of glycitin family in roasted soy flour,"pH3, heat treatment of enzyme no, reaction time 0 h",35.3
same,Decomposition efficiency of glycitin family in roasted soy flour,"pH3, heat treatment of enzyme no, reaction time 1 h",38.7
same,Decomposition efficiency of glycitin family in roasted soy flour,"pH3, heat treatment of enzyme no, reaction time 3 h",30.8
same,Decomposition efficiency of glycitin family in roasted soy flour,"pH3, heat treatment of enzyme no, reaction time 6 h",31.7
same,Decomposition efficiency of glycitin family in roasted soy flour,"pH3, heat treatment of enzyme yes, reaction time 6 h",35.6
same,Decomposition efficiency of glycitin family in defatted soybean,"pH3.4, heat treatment of enzyme: no, reaction time 0 h",not detected
same,Decomposition efficiency of glycitin family in defatted soybean,"pH3.4, heat treatment of enzyme: no, reaction time 1 h",not detected
same,Decomposition efficiency of glycitin family in defatted soybean,"pH3.4, heat treatment of enzyme: no, reaction time 3 h",not detected
same,Decomposition efficiency of glycitin family in defatted soybean,"pH3.4, heat treatment of enzyme: no, reaction time 6 h",not detected
same,Decomposition efficiency of glycitin family in defatted soybean,"pH3.4, heat treatment of enzyme: yes, reaction time 6 h",not detected
same,Decomposition efficiency of glycitin family in soymilk,"pH3.5, heat treatment of enzyme no, reaction time 0 h",not detected
same,Decomposition efficiency of glycitin family in soymilk,"pH3.5, heat treatment of enzyme no, reaction time 1 h",not detected
same,Decomposition efficiency of glycitin family in soymilk,"pH3.5, heat treatment of enzyme no, reaction time 3 h",not detected
same,Decomposition efficiency of glycitin family in soymilk,"pH3.5, heat treatment of enzyme no, reaction time 6 h",not detected
same,Decomposition efficiency of glycitin family in soymilk,"pH3.5, heat treatment of enzyme yes, reaction time 6 h",not detected
same,Decomposition efficiency of glycitin family in concentrated soybean protein,"pH3.7, heat treatment of enzyme: no, reaction time 0 h",36.1%
same,Decomposition efficiency of glycitin family in concentrated soybean protein,"pH3.7, heat treatment of enzyme: no, reaction time 1 h",32.9%
same,Decomposition efficiency of glycitin family in concentrated soybean protein,"pH3.7, heat treatment of enzyme: no, reaction time 3 h",26.1%
same,Decomposition efficiency of glycitin family in concentrated soybean protein,"pH3.7, heat treatment of enzyme: no, reaction time 6 h",22.1%
same,Decomposition efficiency of glycitin family in concentrated soybean protein,"pH3.7, heat treatment of enzyme: yes, reaction time 6 h",35.9%
same,Decomposition efficiency of glycitin family in roasted soy flour,"pH4, heat treatment of enzyme no, reaction time 0 h",34.8
same,Decomposition efficiency of glycitin family in roasted soy flour,"pH4, heat treatment of enzyme no, reaction time 1 h",18.8
same,Decomposition efficiency of glycitin family in roasted soy flour,"pH4, heat treatment of enzyme no, reaction time 3 h",8.2
same,Decomposition efficiency of glycitin family in roasted soy flour,"pH4, heat treatment of enzyme no, reaction time 6 h",not detected
same,Decomposition efficiency of glycitin family in roasted soy flour,"pH4, heat treatment of enzyme yes, reaction time 6 h",35.9
same,Decomposition efficiency of glycitin family in soymilk,"pH4.8, heat treatment of enzyme no, reaction time 0 h",not detected
same,Decomposition efficiency of glycitin family in soymilk,"pH4.8, heat treatment of enzyme no, reaction time 1 h",not detected
same,Decomposition efficiency of glycitin family in soymilk,"pH4.8, heat treatment of enzyme no, reaction time 3 h",not detected
same,Decomposition efficiency of glycitin family in soymilk,"pH4.8, heat treatment of enzyme no, reaction time 6 h",not detected
same,Decomposition efficiency of glycitin family in soymilk,"pH4.8, heat treatment of enzyme yes, reaction time 6 h",not detected
same,Decomposition efficiency of glycitin family in defatted soybean,"pH4.8, heat treatment of enzyme: no, reaction time 0 h",not detected
same,Decomposition efficiency of glycitin family in defatted soybean,"pH4.8, heat treatment of enzyme: no, reaction time 1 h",not detected
same,Decomposition efficiency of glycitin family in defatted soybean,"pH4.8, heat treatment of enzyme: no, reaction time 3 h",not detected
same,Decomposition efficiency of glycitin family in defatted soybean,"pH4.8, heat treatment of enzyme: no, reaction time 6 h",not detected
same,Decomposition efficiency of glycitin family in defatted soybean,"pH4.8, heat treatment of enzyme: yes, reaction time 6 h",not detected
same,Decomposition efficiency of glycitin family in roasted soy flour,"pH5, heat treatment of enzyme no, reaction time 0 h",34.8
same,Decomposition efficiency of glycitin family in roasted soy flour,"pH5, heat treatment of enzyme no, reaction time 1 h",22.9
same,Decomposition efficiency of glycitin family in roasted soy flour,"pH5, heat treatment of enzyme no, reaction time 3 h",6.5
same,Decomposition efficiency of glycitin family in roasted soy flour,"pH5, heat treatment of enzyme no, reaction time 6 h",not detected
same,Decomposition efficiency of glycitin family in roasted soy flour,"pH5, heat treatment of enzyme yes, reaction time 6 h",35.2
same,Decomposition efficiency of glycitin family in concentrated soybean protein,"pH5.1, heat treatment of enzyme: no, reaction time 0 h",36.1%
same,Decomposition efficiency of glycitin family in concentrated soybean protein,"pH5.1, heat treatment of enzyme: no, reaction time 1 h",33.2%
same,Decomposition efficiency of glycitin family in concentrated soybean protein,"pH5.1, heat treatment of enzyme: no, reaction time 3 h",26.0%
same,Decomposition efficiency of glycitin family in concentrated soybean protein,"pH5.1, heat treatment of enzyme: no, reaction time 6 h",21.0%
same,Decomposition efficiency of glycitin family in concentrated soybean protein,"pH5.1, heat treatment of enzyme: yes, reaction time 6 h",35.8%
same,Decomposition efficiency of glycitin family in defatted soybean,"pH5.4, heat treatment of enzyme: no, reaction time 0 h",not detected
same,Decomposition efficiency of glycitin family in defatted soybean,"pH5.4, heat treatment of enzyme: no, reaction time 1 h",not detected
same,Decomposition efficiency of glycitin family in defatted soybean,"pH5.4, heat treatment of enzyme: no, reaction time 3 h",not detected
same,Decomposition efficiency of glycitin family in defatted soybean,"pH5.4, heat treatment of enzyme: no, reaction time 6 h",not detected
same,Decomposition efficiency of glycitin family in defatted soybean,"pH5.4, heat treatment of enzyme: yes, reaction time 6 h",not detected
same,Decomposition efficiency of glycitin family in soymilk,"pH6.2, heat treatment of enzyme no, reaction time 0 h",not detected
same,Decomposition efficiency of glycitin family in soymilk,"pH6.2, heat treatment of enzyme no, reaction time 1 h",not detected
same,Decomposition efficiency of glycitin family in soymilk,"pH6.2, heat treatment of enzyme no, reaction time 3 h",not detected
same,Decomposition efficiency of glycitin family in soymilk,"pH6.2, heat treatment of enzyme no, reaction time 6 h",not detected
same,Decomposition efficiency of glycitin family in soymilk,"pH6.2, heat treatment of enzyme yes, reaction time 6 h",not detected
same,Decomposition efficiency of glycitin family in roasted soy flour,"pH6.5, heat treatment of enzyme no, reaction time 0 h",35.4
same,Decomposition efficiency of glycitin family in roasted soy flour,"pH6.5, heat treatment of enzyme no, reaction time 1 h",35.0
same,Decomposition efficiency of glycitin family in roasted soy flour,"pH6.5, heat treatment of enzyme no, reaction time 3 h",19.7
same,Decomposition efficiency of glycitin family in roasted soy flour,"pH6.5, heat treatment of enzyme no, reaction time 6 h",11.9
same,Decomposition efficiency of glycitin family in roasted soy flour,"pH6.5, heat treatment of enzyme yes, reaction time 6 h",35.4
same,Decomposition efficiency of glycitin family in concentrated soybean protein,[1],36.1%
same,Decomposition efficiency of glycitin family in defatted soybean,[1],not detected
same,Decomposition efficiency of glycitin family in concentrated soybean protein,[2],34.8%
same,Decomposition efficiency of glycitin family in defatted soybean,[2],not detected
same,Decomposition efficiency of glycitin family in concentrated soybean protein,[3],32.4%
same,Decomposition efficiency of glycitin family in defatted soybean,[3],not detected
same,Decomposition efficiency of glycitin family in concentrated soybean protein,[4],29.5%
same,Decomposition efficiency of glycitin family in defatted soybean,[4],not detected
same,Decomposition efficiency of glycitin family in concentrated soybean protein,[5],35.2%
same,Decomposition efficiency of glycitin family in defatted soybean,[5],not detected
same,Decomposition efficiency of glycitin family in soymilk,"pH7.2, heat treatment of enzyme no, reaction time 0 h",not detected
same,Decomposition efficiency of glycitin family in soymilk,"pH7.2, heat treatment of enzyme no, reaction time 1 h",not detected
same,Decomposition efficiency of glycitin family in soymilk,"pH7.2, heat treatment of enzyme no, reaction time 3 h",not detected
same,Decomposition efficiency of glycitin family in soymilk,"pH7.2, heat treatment of enzyme no, reaction time 6 h",not detected
same,Decomposition efficiency of glycitin family in soymilk,"pH7.2, heat treatment of enzyme yes, reaction time 6 h",not detected
same,Decomposition efficiency of glycitin family in defatted soybean,"pH7.8, heat treatment of enzyme: no, reaction time 0 h",not detected
same,Decomposition efficiency of glycitin family in defatted soybean,"pH7.8, heat treatment of enzyme: no, reaction time 1 h",not detected
same,Decomposition efficiency of glycitin family in defatted soybean,"pH7.8, heat treatment of enzyme: no, reaction time 3 h",not detected
same,Decomposition efficiency of glycitin family in defatted soybean,"pH7.8, heat treatment of enzyme: no, reaction time 6 h",not detected
same,Decomposition efficiency of glycitin family in defatted soybean,"pH7.8, heat treatment of enzyme: yes, reaction time 6 h",not detected
same,Decomposition efficiency of glycitin family in roasted soy flour,"pH8.5, heat treatment of enzyme no, reaction time 0 h",31.0
same,Decomposition efficiency of glycitin family in roasted soy flour,"pH8.5, heat treatment of enzyme no, reaction time 1 h",32.4
same,Decomposition efficiency of glycitin family in roasted soy flour,"pH8.5, heat treatment of enzyme no, reaction time 3 h",30.6
same,Decomposition efficiency of glycitin family in roasted soy flour,"pH8.5, heat treatment of enzyme no, reaction time 6 h",30.2
same,Decomposition efficiency of glycitin family in roasted soy flour,"pH8.5, heat treatment of enzyme yes, reaction time 6 h",31.7
same,Decomposition efficiency of glycitin family in concentrated soybean protein,"pH8.6, heat treatment of enzyme: no, reaction time 0 h",33.0%
same,Decomposition efficiency of glycitin family in concentrated soybean protein,"pH8.6, heat treatment of enzyme: no, reaction time 1 h",32.6%
same,Decomposition efficiency of glycitin family in concentrated soybean protein,"pH8.6, heat treatment of enzyme: no, reaction time 3 h",32.6%
same,Decomposition efficiency of glycitin family in concentrated soybean protein,"pH8.6, heat treatment of enzyme: no, reaction time 6 h",32.0%
same,Decomposition efficiency of glycitin family in concentrated soybean protein,"pH8.6, heat treatment of enzyme: yes, reaction time 6 h",31.6%
same,Decomposition efficiency of glycitin family in soymilk,"pH11.6, heat treatment of enzyme no, reaction time 0 h",not detected
same,Decomposition efficiency of glycitin family in soymilk,"pH11.6, heat treatment of enzyme no, reaction time 1 h",not detected
same,Decomposition efficiency of glycitin family in soymilk,"pH11.6, heat treatment of enzyme no, reaction time 3 h",not detected
same,Decomposition efficiency of glycitin family in soymilk,"pH11.6, heat treatment of enzyme no, reaction time 6 h",not detected
same,Decomposition efficiency of glycitin family in soymilk,"pH11.6, heat treatment of enzyme yes, reaction time 6 h",not detected
